Laboratory results from US11827704B2, “Antibody molecules to PD-1 and uses thereof” (Novartis AG, priority 2014, dated 2023).
Read-outs that look alike come from different tables or passages of the source.

What was measured:
[1] = system: PD-L1 (CD274) mRNA in HEYA8 tumors; assay: TaqMan RT PCR of PD-L1 mRNA in HEYA8 tumor xenograft model; format: in vivo, human; settings: tumor xenograft model bearing HEYA8 (KRAS mutant ovarian cancer); FIG. 19
Protocol: (§1) TaqMan RT PCR assays were developed to detect changes of expression levels of PD-L1 (CD274) in cell lines and xenograft tumors. mRNA was isolated from frozen cell pellets or tumor fragments using the Qiagen RNeasy Mini kit. Isolated RNA was frozen at −80° C. RNA quality was checked and RNA was quantified using a 2100 Agilent Bioanalyzer following the protocol for the Agilent RNA 6000 Nano Kit. cDNA was prepared using a High Capacity RNA- to cDNA Kit (Applied Biosystems).
(§2) Real-time PCR reactions were carried out in 20 μl total volume, including 10 μl of Universal PCR master mix (Applied Biosystems), 1 μl of human PD-L1 (CD274) probe/primer set (Applied Biosystems), and 8 μl of cDNA. Each sample was run in triplicate. The amount of cDNA produced from 25-50 ng of RNA in the reverse transcription reaction was used in each PCR reaction. Due to difference in mRNA levels between PD-L1 and GAPDH, the two real-time PCR reactions were done in separate tubes using same amount of cDNA. The real-time PCR reaction was run on the C1000 Thermal Cycle (BioRad) with the cycle program as follows: a 10 minute incubation at 95° C. followed by 40 cycles of 95° C. for 15 seconds and 60° C. for 1 minute. After the reaction was complete, the PD-L1 average Ct was normalized relative to each Ct value from the GAPDH reference reaction. Each normalized logarithmic value was then converted into a linear value.

[2] = system: PD-L1 (CD274) mRNA in LOXIMV1 tumors; assay: TaqMan RT PCR of PD-L1 mRNA in LOXIMV1 tumor xenograft model; format: in vivo, human; settings: tumor xenograft model bearing LOXIMV1 (BRAF mutant melanoma); FIG. 18
Protocol: as §1, §2

[3] = system: PD-L1 (CD274) mRNA in UKE-1 tumors; assay: TaqMan RT PCR of PD-L1 mRNA in UKE-1 tumor xenograft model; format: in vivo, human; settings: tumor xenograft model bearing UKE-1 (MPN line with JAK2V617F mutation); FIG. 20
[4] = system: PD-L1 (CD274) mRNA in H3122 cells; assay: TaqMan RT PCR of PD-L1 mRNA in H3122 cells in vitro; format: cell-based, human; settings: H3122 (NSCLC with ALK translocation) in vitro; FIG. 17
Protocol: as §1, §2

[5] = system: PD-L1 (CD274) surface expression in EBC-1 cells; assay: Flow cytometry of PD-L1 surface expression in EBC-1 cells in vitro; format: cell-based, human; settings: EBC-1 cells (NSCLC with cMET amplification); 10 nM, 100 nM, 1000 nM for 24, 48 and 72 hours; FIG. 15
Protocol: PD-L1 (CD274) expression was analyzed in cancer cell lines treated with Compound A17. Cells were obtained from ATCC and cultured in vitro following ATCC directions. The cell lines used were previously characterized by the Cancer Cell Line Encyclopedia Project (broadinstitute.org/ccle/home).
Cells plated in six-well culture plates were treated with the Compound A17 at different concentrations (10 nM, 100 nM, and 1000 nM) for 24, 48 and 72 hours. Equal amount of vehicle (DMSO) was used as a control. Cells were washed with PBS and then harvested using a cell scraper.
For each reaction, 0.5-1×10^6 cells were stained with 20 μL of anti-human monoclonal PD-L1-PE antibody, clone M1H1 (BD) for 30-60 minutes at 4° C. Cells were washed twice and data was acquired using a Canto II with FACSDiva software (BD Bioscience). Data analysis was performed using FlowJo software (Tree Star). Mean fluorescence intensity (MFI) was determined by gating on single cells. Unstained cells were used as a gating control.

[6] = system: PD-L1 (CD274) mRNA in Hs.746.T tumor; assay: TaqMan RT PCR of PD-L1 mRNA in Hs.746.T tumor xenograft; format: in vivo, human; settings: Hs.746.T tumor (gastric cancer cell with cMET amplification & mutation) xenograft; FIG. 16
CD8^+ T cells = assay: Proliferation of CD8+ T cells activated with CMV peptides; format: cell-based; settings: percentages of CD8+ cells that passed through at least n cell divisions (n=2, 4, 6)
IFN-γ expression = format: cell-based

Molecule: Cn1cnc2c(F)c(Nc3ccc(Br)cc3F)c(C(=O)NOCCO)cc21 [Compound A34, Binimetinib]
- PD-L1 mRNA [1]: Downregulation

Molecule: COC(=O)N[C@@H](C)CNc1nccc(-c2cn(C(C)C)nc2-c2cc(Cl)cc(NS(C)(=O)=O)c2F)n1 [Compound A29, Encorafenib]
- PD-L1 mRNA [2]: Downregulation

Molecule: N#CC[C@H](C1CCCC1)n1cc(-c2ncnc3[nH]ccc23)cn1 [Compound A18, Ruxolitinib Phosphate]
- PD-L1 mRNA [3]: Downregulation

Molecule: Cc1cc(Nc2ncc(Cl)c(Nc3ccccc3S(=O)(=O)C(C)C)n2)c(OC(C)C)cc1C1CCNCC1 [Compound A23, ceritinib]
- PD-L1 mRNA [4]: Inhibition

Molecule: CNC(=O)c1ccc(-c2cnc3ncc(Cc4ccc5ncccc5c4)n3n2)cc1F [Compound A17, 2-fluoro-N-methyl-4-(7-(quinolin-6-ylmethyl)imidazo[1,2-b][1,2,4]triazin-2-yl)benzamide]
- surface expression of PD-L1 (flow cytometry) [5]: significant downregulation
- PD-L1 expression (mRNA) [6]: Inhibition

B1: BAP049: murine anti-PD-1 monoclonal antibody; sequences in Table 1 (antibody, V domains shown)
VH: QVQLQQSGSELVRPGASVKLSCKASGYTFTTYWMHWVRQRPGQGLEWIGNIYPGTGGSNFDEKFKNRTSLTVDTSSTTAYMHLASLTSEDSAVYYCTRWTTGTGAYWGQGTLVTVSA
VL: DIVMTQSPSSLTVTAGEKVTMSCKSSQSLLDSGNQKNFLTWYQQKPGQPPKLLIFWASTRESGVPDRFTGSGSVTDFTLTISSVQAEDLAVYYCQNDYSYPCTFGGGTKLEIK
- proliferation of CD8+ T cells activated with CMV peptides (CD8^+ T cells): increase proliferation
- fold increase in IFN-γ expression (IFN-γ expression): 2.8±0.8 fold
- fold increase in IFN-γ expression (IFN-γ expression; cells stimulated with Staphylococcal enterotoxin B (SEB) (3 μg/mL)): 2.5±2.0 fold
